In ChEMBL document CHEMBL3352382, “New benzimidazole-2-urea derivates as tubulin inhibitors” (Bioorg Med Chem Lett, 2014):
Activity calls are given as the source filed them. The calls are words filed in the database; no cut-off is given here.

Experiments:
Tubulin (Homo sapiens) [1] = target: T1, Tubulin (Homo sapiens) (UniProt P68371+Q9H4B7+P0DPH7+P68366+Q13509+Q71U36+P04350+Q3ZCM7+P07437+P68363+Q9BQE3+Q6PEY2+Q13885+Q9BVA1+Q9BUF5); test: Inhibition of tubulin in human NCI-H460 cells assessed as reduction in spindles formation at 100 nM after 8 hrs by immunofluorescence technique; assay type: cell-based
Tubulin (Homo sapiens) [2] = target: T1, Tubulin (Homo sapiens); test: Inhibition of tubulin in human NCI-H460 cells assessed as depolymerization of microtubule cytoskeleton after 8 hrs by immunofluorescence technique; assay type: cell-based
COLO 205 = test: Cytotoxicity against human COLO205 cells assessed as growth inhibition by MTT assay; assay type: functional, cell-based
[3] = Cytotoxicity against human MDA-MB-435S cells assessed as growth inhibition after 72 hrs by CCK-8 assay; assay type: functional, cell-based
A-431 = test: Cytotoxicity against human A431 cells assessed as growth inhibition after 72 hrs by CCK-8 assay; assay type: functional, cell-based; settings: A-431, 72 h
NCI-H460 = test: Cytotoxicity against human NCI-H460 cells assessed as growth inhibition by MTT assay; assay type: functional, cell-based
HepG2 = test: Cytotoxicity against human HepG2 cells assessed as growth inhibition after 72 hrs by CCK-8 assay; assay type: functional, cell-based; settings: HepG2, 72 h
HeLa = test: Cytotoxicity against human HeLa cells assessed as growth inhibition after 72 hrs by CCK-8 assay; assay type: functional, cell-based
K562 = test: Cytotoxicity against human K562 cells assessed as growth inhibition after 72 hrs by CCK-8 assay; assay type: functional, cell-based; settings: K562, 72 h

Compound	Activity (Tubulin (Homo sapiens) [1])	Activity (Tubulin (Homo sapiens) [2])	IC50 (COLO 205) [nM]	IC50 [3] [nM]	IC50 (A-431) [nM]	IC50 (NCI-H460) [nM]	IC50 (HepG2) [nM]	IC50 (HeLa) [nM]	IC50 (K562) [nM]
CNC(=O)Nc1nc2cc(Oc3cccc(C#N)c3)ccc2[nH]1	Active	Dose-dependent effect							
CC(=O)O[C@H]1C(=O)[C@@]2(C)[C@H]([C@H](OC(=O)c3ccccc3)[C@]3(O)C[C@H](OC(=O)[C@H](O)[C@@H](NC(=O)c4ccccc4)c4ccccc4)C(C)=C1C3(C)C)[C@]1(OC(C)=O)CO[C@@H]1C[C@@H]2O [PACLITAXEL]			3	9	7	10	990	410	4
COc1cc2c(c(OC)c1OC)-c1ccc(OC)c(=O)cc1[C@@H](NC(C)=O)CC2 [COLCHICINE]			3	7	8	21	1710	704	1
O=C(Cc1ccccc1)Nc1nc2cc(Oc3ccccc3)ccc2[nH]1			11400			> 10000			
